Reference: patent US20160166701A1, “DELIVERY COMPOSITION FOR TOPICAL APPLICATIONS AND INJECTIONS AND OPHTHALMIC FORMULATIONS, METHODS FOR MANUFACTURING THEREOF, AND METHODS FOR DELIVERY OF A DRUG-DELIVERY COMPOSITION” (THERAKINE BIODELIVERY GMBH, priority 2013, published 2016)

Experiments:
[1] = test system: rabbits undergoing photorefractive keratectomy (PRK) surgery; assay: Rabbit PRK study of canakinumab incorporated in the matrix formulation (Example 3); assay type: in vivo
Procedure: In Example 3, a further rabbit study, similar to the design of Example 2 above, was performed using Novartis's canakinumab, a fully human antibody against Il-1 beta, incorporated in the matrix formulation using hyaluronic acid microparticles enhancing corneal adherence.
Even though it is described that canakinumab does differ from rabbit IL-1 in one amino acid, this study was performed to study the adherence characteristics, pk, and safety/tolerability of EpiKine delivering a different Il-1 inhibitor.

[2] = test system: rabbits undergoing photorefractive keratectomy (PRK) surgery; assay: Rabbit photorefractive keratectomy (PRK) study of matrix formulation with IL-1ra versus steroid control (Example 2); assay type: in vivo; details: lower doses of IL-1ra and steroid group compared with higher dose of IL-1ra and control group, week 3; FIG. 6
Procedure: In Example 2; various concentrations of IL-1ra, i.e. 50 mg/ml or 2.5 mg/drop, 25 mg/ml or 1.25 mg/drop, and 5 mg/ml or 0.25 mg/drop (solutions A-C), were compared to a standard steroid control (fluorometholone) in rabbits undergoing photorefractive keratectomy (PRK) surgery. […] The final hyaluronic acid concentration (i.e. the hyaluronic acid concentration in the final matrix formulation) was 0.526% w/w, based on the total weight of the matrix formulation.
Each rabbit received PRK in both eyes at a 100 μm ablation depth. In each rabbit, the right eye (OD) served as the treated eye while the left eye (OS) served as control. […]
As before corneal clarity, forward scatter and haze measurement were used as out-come parameters. Haze formation and scattering was assessed via slit lamp exam by an ophthalmologist. The timing for re-epithelization to occur in both the treatment and control groups was measured.
In addition Pentacam technology was used to image the anterior segment of the eye via a rotating Scheimpflug process that supplied pictures in three dimensions, allowing for a precise measurement of the shape, thickness, and the contour of the cornea. Using this method, the center of the cornea, which is most critical for refractive surgery planning, is measured precisely because of this rotational imaging process. […]

[3] = test system: freshly isolated and subcultured corneal fibroblasts; assay: α-SMA positive corneal fibroblasts in normal or serum-free media, confocal microscopy on day 4 (Example 4); assay type: cell-based, rabbit; details: serum-free media, 30 μg/mL, both subcultured and freshly isolated cells
Procedure: Since there is a variable amount of growth factors such as IL-1 in serum, the presence of serum may offset the effect of blocking IL-1 with the matrix formulation. In this experiment, freshly isolated and subcultured corneal fibroblasts (P2-P5) were seeded at a density of 5,000 cells/cm^2 and cultured with 30 μg/mL with human recombinant IL-1ra in either normal (NM) or Serum-Free (SF) media. Cells were analyzed on day 4 for levels of α-SMA with confocal microscopy. Cell numbers in serum-free samples were too low to recover enough protein for Western Blot analysis. 5 individuals independently counted 3 images of each of 3 samples per condition for α-SMA positive cells. Serum-free media induced lower α-SMA expression in freshly isolated cells but had no effect on subcultured cells. […] This finding supports that the phenotype of subcultured cells can be influenced by the matrix formulation.
Percentage of freshly isolated (FI) and subcultured (SC) RCFs expressing α-SMA as determined from confocal immunofluorescence on day 4 in the following conditions: normal media (NM), normal media with IL-1ra (NM+IL-1ra), serum-free (SF), and serum-free with IL-1ra (SF+IL-1ra). SF conditions decreased α-SMA levels in FI but not in SC cells. […] Data represents mean+/−standard error with n=3 (* indicate p<<0.001, θ indicate p<0.05, φ indicate p<0.005).

[4] = test system: rabbits following photorefractive keratectomy (PRK); details: rabbit, in vivo; cited from earlier work
[5] = every data point, not statistically significant

Molecule	epithelial closure ([1]; 1.25 mg concentration, within the canakinumab concentrations)	foam layer thickness (histologic analysis) ([1]; 2.5 mg and 1.25 mg concentration compared to 0.25 mg concentration)	objective haze (Pentacam) densitometry values ([1]; 2.5 mg concentration group, each time point)	corneal haze ([1]; 2.5 mg concentration, almost all data points, not statistically significant)	subjective haze (slit lamp exam) ([1]; 2.5 mg concentration, within the canakinumab concentrations)	objective haze (HRT stromal haze) ([1]; 2.5 mg, compared to control, week 2)	epithelial closure ([1]; all concentrations, compared to steroid and control group, not statistically significant)	adverse events ([1]; any of the concentrations, preliminary results)	subjective haze (slit lamp exam) ([1]; compared to the control group)	objective haze (HRT stromal haze) [1, 5]	safety compared to steroids ([1]; time frame administered in this study)	subjective haze (slit lamp exam) ([1]; weeks 2, 4, 5, not statistically significant)	Pentacam density measurements [2]	α-SMA expression [3]	serious adverse events such as infections or worsening infections [4]
canakinumab	trend for faster closure	thinner foam layers	trend for lower densitometry values	trend towards lower corneal haze	trend for lower subjective haze values	statistically significant less haze	took longer to heal	No adverse events	as effective as steroids	less haze than the control group	non-inferior to steroids	lower haze	–	–	–
CC(=O)[C@@]1(O)CC[C@H]2[C@@H]3C[C@H](C)C4=CC(=O)C=C[C@]4(C)[C@@]3(F)[C@@H](O)C[C@@]21C [Steroids, fluorometholone, reference compound]	–	–	–	–	–	–	–	–	–	least haze	–	–	–	–	–
IL-1ra: IL-1ra is a biologic agent (protein) that blocks IL-1	–	–	–	–	–	–	–	–	–	–	–	–	statistically significant difference	significantly decreased	No serious adverse events
